In patent US20220088016A1, “CANCER TREATMENT USING MULTI-TARGETED KINASE INHIBITOR IN COMBINATION OF PROTEIN KINASE BIOMARKERS” (ZHEJIANG CROWNMAB BIOTECH CO. LTD., priority 2019, published 2022):

Experiments:
Experiment in all cases: Kinase profiling
Type in all cases: binding
Conditions in all cases: read-out: % Ctrl @ 1000 nM
[1] = target: ABL1 (F317I)-nonphosphorylated (Homo sapiens, UniProt P00519, F317I)
ACVR1 = ACVR1 (Homo sapiens, UniProt Q04771)
ACVR1B = ACVR1B (Homo sapiens, UniProt P36896)
ALK = ALK (Homo sapiens, UniProt Q9UM73)
BRAF = BRAF (Homo sapiens, UniProt P15056)
CDC2L5 = CDC2L5 (Homo sapiens, UniProt Q14004)
CDKL2 = CDKL2 (Homo sapiens, UniProt Q92772)
CDKL2, sequence (Q92772 whole entry): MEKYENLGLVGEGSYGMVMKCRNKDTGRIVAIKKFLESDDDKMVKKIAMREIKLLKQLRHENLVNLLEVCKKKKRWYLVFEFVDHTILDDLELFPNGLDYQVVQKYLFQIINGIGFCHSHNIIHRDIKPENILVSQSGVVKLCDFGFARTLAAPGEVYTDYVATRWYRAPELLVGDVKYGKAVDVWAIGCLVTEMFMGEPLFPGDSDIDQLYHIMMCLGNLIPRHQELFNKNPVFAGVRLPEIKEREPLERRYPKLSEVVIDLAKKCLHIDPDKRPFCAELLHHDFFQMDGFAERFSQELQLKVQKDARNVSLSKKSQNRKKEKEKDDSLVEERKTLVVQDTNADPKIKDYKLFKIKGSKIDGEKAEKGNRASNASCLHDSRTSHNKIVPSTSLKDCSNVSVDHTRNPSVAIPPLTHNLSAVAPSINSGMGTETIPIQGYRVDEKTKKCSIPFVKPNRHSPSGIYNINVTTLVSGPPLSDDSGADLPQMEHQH

DRAK2 = DRAK2 (Homo sapiens, UniProt O94768)
EPHA6 = EPHA6 (Homo sapiens, UniProt Q9UF33)
EPHA6, sequence (Q9UF33 23-1036): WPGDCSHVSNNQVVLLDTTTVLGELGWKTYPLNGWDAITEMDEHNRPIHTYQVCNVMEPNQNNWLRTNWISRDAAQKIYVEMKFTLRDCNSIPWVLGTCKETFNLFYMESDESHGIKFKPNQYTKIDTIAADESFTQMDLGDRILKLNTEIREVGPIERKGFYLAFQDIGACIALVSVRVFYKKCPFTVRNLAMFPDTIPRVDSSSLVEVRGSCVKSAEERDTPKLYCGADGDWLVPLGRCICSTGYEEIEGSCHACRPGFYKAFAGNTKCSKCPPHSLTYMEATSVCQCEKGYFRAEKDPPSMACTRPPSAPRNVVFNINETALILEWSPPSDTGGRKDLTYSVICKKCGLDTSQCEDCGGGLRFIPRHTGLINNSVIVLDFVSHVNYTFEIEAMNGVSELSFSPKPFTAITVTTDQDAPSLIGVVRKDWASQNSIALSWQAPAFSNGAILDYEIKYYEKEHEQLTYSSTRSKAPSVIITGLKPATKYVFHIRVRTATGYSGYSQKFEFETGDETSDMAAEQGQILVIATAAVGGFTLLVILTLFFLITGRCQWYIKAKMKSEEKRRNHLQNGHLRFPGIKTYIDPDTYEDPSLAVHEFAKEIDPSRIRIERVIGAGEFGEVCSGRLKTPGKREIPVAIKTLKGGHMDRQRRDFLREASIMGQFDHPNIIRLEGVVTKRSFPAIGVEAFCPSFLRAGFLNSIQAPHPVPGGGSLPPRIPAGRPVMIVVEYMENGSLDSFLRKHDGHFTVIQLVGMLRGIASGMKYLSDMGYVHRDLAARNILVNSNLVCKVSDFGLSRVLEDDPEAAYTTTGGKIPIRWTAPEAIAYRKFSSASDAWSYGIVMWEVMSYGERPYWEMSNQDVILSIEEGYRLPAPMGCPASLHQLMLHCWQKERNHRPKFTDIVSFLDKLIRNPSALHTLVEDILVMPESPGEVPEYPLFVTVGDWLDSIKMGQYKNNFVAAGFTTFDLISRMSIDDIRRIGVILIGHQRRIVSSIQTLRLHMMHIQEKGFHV

EPHB1 = EPHB1 (Homo sapiens, UniProt P54762)
ERK5 = ERK5 (Homo sapiens, UniProt Q13164)
FLT3 (K663Q) = FLT3 (K663Q) (Homo sapiens, UniProt P36888, K663Q)
FYN = FYN (Homo sapiens, UniProt P06241)
GRK4 = GRK4 (Homo sapiens, UniProt P32298)
GRK4, sequence (P32298 whole entry): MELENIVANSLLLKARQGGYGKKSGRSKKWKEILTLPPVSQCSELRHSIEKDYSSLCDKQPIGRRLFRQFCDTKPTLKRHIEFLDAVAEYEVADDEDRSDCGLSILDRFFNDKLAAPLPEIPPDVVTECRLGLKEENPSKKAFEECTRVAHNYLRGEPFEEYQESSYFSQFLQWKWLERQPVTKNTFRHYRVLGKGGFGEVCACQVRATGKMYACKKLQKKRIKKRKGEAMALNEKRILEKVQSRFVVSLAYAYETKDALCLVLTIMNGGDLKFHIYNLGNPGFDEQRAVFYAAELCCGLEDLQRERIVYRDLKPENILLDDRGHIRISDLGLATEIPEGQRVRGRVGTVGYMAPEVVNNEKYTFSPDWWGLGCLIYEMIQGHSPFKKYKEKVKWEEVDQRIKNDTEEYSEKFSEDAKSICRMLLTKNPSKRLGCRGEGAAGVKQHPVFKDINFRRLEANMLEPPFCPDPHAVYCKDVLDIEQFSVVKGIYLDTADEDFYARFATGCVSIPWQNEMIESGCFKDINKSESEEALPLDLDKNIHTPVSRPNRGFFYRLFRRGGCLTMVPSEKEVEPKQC

HIPK1 = HIPK1 (Homo sapiens, UniProt Q86Z02)
IRAK3 = IRAK3 (Homo sapiens, UniProt Q9Y616)
MINK = target: T1, MINK (Homo sapiens, UniProt Q8N4C8)
T1 construct: T7 phage fusion (stated for most kinases of the panel only); made in house; host or cells: T7 phage in E. coli (BL21-derived) or HEK-293 cells

MKK7 = target: T2, MKK7 (Homo sapiens, UniProt O14733)
T2 construct: T7 phage fusion (stated for most kinases of the panel only); made in house; host or cells: T7 phage in E. coli (BL21-derived) or HEK-293 cells

MST1 = target: T3, MST1 (Homo sapiens, UniProt Q13043)
T3 construct: T7 phage fusion (stated for most kinases of the panel only); made in house; host or cells: T7 phage in E. coli (BL21-derived) or HEK-293 cells

MYLK2 = target: T4, MYLK2 (Homo sapiens, UniProt Q9H1R3)
T4 construct: T7 phage fusion (said for most assays); made in house

MYO3A = target: T5, MYO3A (Homo sapiens, UniProt Q8NEV4)
T5 construct: T7 phage fusion (said for most assays); made in house

MYO3B = target: T6, MYO3B (Homo sapiens, UniProt Q8WXR4)
T6 construct: T7 phage fusion (said for most assays); made in house

NEK6 = target: T7, NEK6 (Homo sapiens, UniProt Q9HC98)
T7 construct: T7 phage fusion (said for most assays); made in house

p38-alpha = p38-alpha (Homo sapiens, UniProt Q16539)
p38-alpha, sequence (Q16539 whole entry): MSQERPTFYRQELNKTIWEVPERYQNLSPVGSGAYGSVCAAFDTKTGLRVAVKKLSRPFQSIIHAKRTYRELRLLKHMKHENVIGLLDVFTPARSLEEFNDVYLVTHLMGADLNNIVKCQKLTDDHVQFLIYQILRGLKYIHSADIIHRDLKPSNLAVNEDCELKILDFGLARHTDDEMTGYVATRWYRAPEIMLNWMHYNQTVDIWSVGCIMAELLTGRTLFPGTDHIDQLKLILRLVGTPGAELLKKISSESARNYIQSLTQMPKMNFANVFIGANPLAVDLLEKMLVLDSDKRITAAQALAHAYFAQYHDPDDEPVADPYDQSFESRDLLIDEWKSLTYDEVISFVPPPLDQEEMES

PCTK2 = PCTK2 (Homo sapiens, UniProt Q00537)
PIK3CA (Q546K) = PIK3CA (Q546K) (Homo sapiens, UniProt P42336, Q546K)
PIKFYVE = PIKFYVE (Homo sapiens, UniProt Q9Y2I7)
PKN2 = PKN2 (Homo sapiens, UniProt Q16513)
PKN2, sequence (Q16513 whole entry): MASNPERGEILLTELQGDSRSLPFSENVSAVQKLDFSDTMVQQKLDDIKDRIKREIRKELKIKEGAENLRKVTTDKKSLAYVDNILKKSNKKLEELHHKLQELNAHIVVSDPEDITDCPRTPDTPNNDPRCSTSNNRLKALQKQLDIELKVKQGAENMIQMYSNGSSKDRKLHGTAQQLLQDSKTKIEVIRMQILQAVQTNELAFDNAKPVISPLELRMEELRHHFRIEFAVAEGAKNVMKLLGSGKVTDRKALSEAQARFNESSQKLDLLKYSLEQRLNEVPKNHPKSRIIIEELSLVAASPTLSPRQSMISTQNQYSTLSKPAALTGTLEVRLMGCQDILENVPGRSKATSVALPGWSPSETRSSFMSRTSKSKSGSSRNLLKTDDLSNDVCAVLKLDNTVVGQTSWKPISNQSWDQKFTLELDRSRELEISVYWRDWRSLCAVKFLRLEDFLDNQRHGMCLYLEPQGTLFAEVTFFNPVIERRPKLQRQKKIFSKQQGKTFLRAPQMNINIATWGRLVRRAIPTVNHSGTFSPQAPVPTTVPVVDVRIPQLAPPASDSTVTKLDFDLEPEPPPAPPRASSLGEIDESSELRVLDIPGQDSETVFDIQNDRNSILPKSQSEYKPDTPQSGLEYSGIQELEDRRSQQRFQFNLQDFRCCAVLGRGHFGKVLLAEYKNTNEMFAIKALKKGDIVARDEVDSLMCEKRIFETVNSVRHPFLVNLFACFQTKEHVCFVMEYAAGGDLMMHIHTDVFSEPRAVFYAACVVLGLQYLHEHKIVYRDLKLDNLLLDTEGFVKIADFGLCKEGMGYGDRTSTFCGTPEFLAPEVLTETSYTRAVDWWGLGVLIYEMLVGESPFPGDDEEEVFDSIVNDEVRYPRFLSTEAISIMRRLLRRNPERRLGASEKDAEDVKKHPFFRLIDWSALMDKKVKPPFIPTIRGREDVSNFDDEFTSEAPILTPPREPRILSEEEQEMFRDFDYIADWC

PRKG2 = PRKG2 (Homo sapiens, UniProt Q13237)
[2] = target: RPS6KA4 (Kin.Dom.1-N-terminal) (Homo sapiens, UniProt O75676)
RPS6KA4 (Kin.Dom.1-N-terminal), sequence (O75676 33-301 limits assumed): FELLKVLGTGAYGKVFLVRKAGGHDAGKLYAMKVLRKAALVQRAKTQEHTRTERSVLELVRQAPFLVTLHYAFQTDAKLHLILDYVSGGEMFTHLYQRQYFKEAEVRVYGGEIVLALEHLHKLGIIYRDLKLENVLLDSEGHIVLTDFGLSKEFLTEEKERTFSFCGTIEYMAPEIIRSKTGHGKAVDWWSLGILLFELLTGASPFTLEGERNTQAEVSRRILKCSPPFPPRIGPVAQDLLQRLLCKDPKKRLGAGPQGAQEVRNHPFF

[3] = target: RSK2 (Kin.Dom.1-N-terminal) (Homo sapiens, UniProt P51812)
RSK2 (Kin.Dom.1-N-terminal), sequence (P51812 68-327 limits assumed): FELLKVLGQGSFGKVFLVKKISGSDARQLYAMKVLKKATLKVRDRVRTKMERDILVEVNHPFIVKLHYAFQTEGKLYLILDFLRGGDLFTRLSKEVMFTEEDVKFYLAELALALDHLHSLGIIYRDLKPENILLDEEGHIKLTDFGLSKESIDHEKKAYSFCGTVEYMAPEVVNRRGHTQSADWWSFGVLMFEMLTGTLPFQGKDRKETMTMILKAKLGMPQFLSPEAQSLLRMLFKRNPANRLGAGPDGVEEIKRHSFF

SgK110 = SgK110 (Homo sapiens, UniProt P0C264)
SIK = SIK (Homo sapiens, UniProt P57059)
SNARK = SNARK (Homo sapiens, UniProt Q9H093)
SYK = SYK (Homo sapiens, UniProt P43405)
TAOK2 = TAOK2 (Homo sapiens, UniProt Q9UL54)
TESK1 = TESK1 (Homo sapiens, UniProt Q15569)
TESK1, sequence (Q15569 whole entry): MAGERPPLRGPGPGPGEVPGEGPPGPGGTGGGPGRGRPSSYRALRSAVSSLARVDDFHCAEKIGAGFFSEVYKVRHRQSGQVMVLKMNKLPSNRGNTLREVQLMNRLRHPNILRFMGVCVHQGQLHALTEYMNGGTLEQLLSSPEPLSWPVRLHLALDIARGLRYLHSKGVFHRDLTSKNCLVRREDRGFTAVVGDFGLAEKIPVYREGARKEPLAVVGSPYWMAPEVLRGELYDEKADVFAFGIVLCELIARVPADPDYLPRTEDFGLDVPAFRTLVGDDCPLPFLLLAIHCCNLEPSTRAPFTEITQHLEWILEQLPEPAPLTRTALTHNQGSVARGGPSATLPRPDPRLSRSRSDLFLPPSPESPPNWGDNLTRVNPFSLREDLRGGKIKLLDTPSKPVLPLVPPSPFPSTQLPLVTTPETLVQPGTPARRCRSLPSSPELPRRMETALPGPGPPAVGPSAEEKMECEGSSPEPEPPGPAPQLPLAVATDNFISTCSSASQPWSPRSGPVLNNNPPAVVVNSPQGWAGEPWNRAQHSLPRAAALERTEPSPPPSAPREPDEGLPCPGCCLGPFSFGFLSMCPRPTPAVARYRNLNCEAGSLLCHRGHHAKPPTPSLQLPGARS

TNIK = TNIK (Homo sapiens, UniProt Q9UKE5)
YANK2 = YANK2 (Homo sapiens, UniProt Q9NY57)
YANK2, sequence (Q9NY57 whole entry): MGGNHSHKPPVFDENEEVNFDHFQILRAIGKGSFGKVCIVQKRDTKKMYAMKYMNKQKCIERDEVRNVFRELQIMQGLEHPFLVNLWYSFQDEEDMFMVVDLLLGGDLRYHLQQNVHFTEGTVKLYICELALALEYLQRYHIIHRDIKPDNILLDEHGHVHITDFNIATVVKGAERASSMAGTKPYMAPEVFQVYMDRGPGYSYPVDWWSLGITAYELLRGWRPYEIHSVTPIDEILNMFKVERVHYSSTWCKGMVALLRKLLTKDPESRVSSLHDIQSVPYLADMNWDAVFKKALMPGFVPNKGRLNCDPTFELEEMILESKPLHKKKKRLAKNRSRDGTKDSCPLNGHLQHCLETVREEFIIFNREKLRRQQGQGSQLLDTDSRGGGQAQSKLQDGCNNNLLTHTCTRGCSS

SMILES: Cc1cc(Oc2cc(NC(=O)C3CC3)ncn2)ccc1NC(=O)Nc1ccc(Cl)c(C(F)(F)F)c1 [CBT-102]
- remaining activity at 1 µM [1]: 70%
- remaining activity at 1 µM (ACVR1): 95%
- remaining activity at 1 µM (ACVR1B): 100%
- remaining activity at 1 µM (ALK): 100%
- remaining activity at 1 µM (BRAF): 6.1%
- remaining activity at 1 µM (CDC2L5): 73%
- remaining activity at 1 µM (CDKL2): 0.45%
- remaining activity at 1 µM (DRAK2): 100%
- remaining activity at 1 µM (EPHA6): 2.7%
- remaining activity at 1 µM (EPHB1): 38%
- remaining activity at 1 µM (ERK5): 88%
- remaining activity at 1 µM (FLT3 (K663Q)): 3.9%
- remaining activity at 1 µM (FYN): 76%
- remaining activity at 1 µM (GRK4): 100%
- remaining activity at 1 µM (HIPK1): 96%
- remaining activity at 1 µM (IRAK3): 100%
- remaining activity at 1 µM (MINK): 35%
- remaining activity at 1 µM (MKK7): 66%
- remaining activity at 1 µM (MST1): 100%
- remaining activity at 1 µM (MYLK2): 98%
- remaining activity at 1 µM (MYO3A): 81%
- remaining activity at 1 µM (MYO3B): 90%
- remaining activity at 1 µM (NEK6): 100%
- remaining activity at 1 µM (p38-alpha): 0%
- remaining activity at 1 µM (PCTK2): 44%
- remaining activity at 1 µM (PIK3CA (Q546K)): 100%
- remaining activity at 1 µM (PIKFYVE): 91%
- remaining activity at 1 µM (PKN2): 100%
- remaining activity at 1 µM (PRKG2): 91%
- remaining activity at 1 µM [2]: 100%
- remaining activity at 1 µM [3]: 97%
- remaining activity at 1 µM (SgK110): 98%
- remaining activity at 1 µM (SIK): 95%
- remaining activity at 1 µM (SNARK): 100%
- remaining activity at 1 µM (SYK): 100%
- remaining activity at 1 µM (TAOK2): 23%
- remaining activity at 1 µM (TESK1): 100%
- remaining activity at 1 µM (TNIK): 8.3%
- remaining activity at 1 µM (YANK2): 100%
